Source: ChEMBL document CHEMBL5625249, “Optimization and antifungal activity of quinoline derivatives linked to chalcone moiety combined with FLC against Candida albicans” (Eur J Med Chem, 2023)
Converted amounts (≈) assume the structure as drawn. The source made the active and inactive calls. The rule behind the calls is not given here.

What was measured:
[1] = Toxicity in Balb/c mouse infected with FLC-resistant Candida albicans ATCC 14053 assessed as weight loss at 2 mg/kg, ig measured daily for 6 days; type: organism-based; conditions: in vivo, po, 144 h, time 6 day
Candida albicans [2] = assay: Antifungal activity against FLC-sensitive Candida albicans SC5314 measured after 24 hrs by microdilution method; type: functional
Candida albicans [3] = assay: Antifungal activity against Clinical FLC-resistant Candida albicans 23 measured after 24 hrs by microdilution method; type: functional
Candida albicans [4] = assay: Antifungal activity against clinical FLC-resistant Candida albicans 187 measured after 24 hrs by microdilution method; type: functional
Candida albicans [5] = assay: Antifungal activity against clinical FLC-resistant Candida albicans 808 measured after 24 hrs by microdilution method; type: functional
Candida albicans [6] = assay: Antifungal activity against clinical FLC-resistant Candida albicans 381 measured after 24 hrs by microdilution method; type: functional
Candida albicans [7] = assay: Antifungal activity against clinical FLC-resistant Candida albicans 602 measured after 24 hrs by microdilution method; type: functional
Candida albicans [8] = assay: Antifungal activity against clinical FLC-resistant Candida albicans 550 measured after 24 hrs by microdilution method; type: functional
Candida albicans [9] = assay: Antifungal activity against clinical FLC-resistant Candida albicans 800 measured after 24 hrs by microdilution method; type: functional
Candida albicans [10] = assay: Antifungal activity against clinical FLC-resistant Candida albicans 799 measured after 24 hrs by microdilution method; type: functional
Candida albicans [11] = assay: Antifungal activity against clinical FLC-resistant Candida albicans 3816 measured after 24 hrs by microdilution method; type: functional
Candida albicans [12] = assay: Antifungal activity against clinical FLC-resistant Candida albicans 4508 measured after 24 hrs by microdilution method; type: functional
Candida albicans [13] = assay: Antifungal activity against clinical FLC-resistant Candida albicans 3511 measured after 24 hrs by microdilution method; type: functional
Candida albicans [14] = assay: Antifungal activity against clinical FLC-resistant Candida albicans 4574 measured after 24 hrs by microdilution method; type: functional
Candida albicans [15] = assay: Antifungal activity against FLC-resistant Candida albicans ATCC 10231 measured after 24 hrs by microdilution method; type: functional
Candida albicans [16] = assay: Antifungal activity against FLC-resistant Candida albicans ATCC 14053 measured after 24 hrs by microdilution method; type: functional
Candida albicans [17] = assay: Antifungal activity against FLC-resistant Candida albicans ATCC 14053 at 1 ug/mL measured over 48 hrs by time-killing assay; type: functional, organism-based; conditions: dose 1.0 µg/ml
Candida albicans [18] = assay: Antifungal activity against FLC-resistant Candida albicans ATCC 14053 cultured in spider medium assessed as inhibition of hyphal formation at 1 ug/ml measured after 2 hrs by inverted microscopy; type: functional, organism-based; conditions: dose 1.0 µg/ml
Candida albicans [19] = assay: Antifungal activity against FLC-resistant Candida albicans ATCC 14053 assessed as inhibition of hyphal formation by measuring down regulation of RAS1 gene expression at 8 ug/ml measured after 16 to 18 hrs by qRT-PCR analysis; type: functional, organism-based; conditions: dose 8.0 µg/ml, time 16-18 hrs
Candida albicans [20] = assay: Antifungal activity against FLC-resistant Candida albicans ATCC 14053 assessed as inhibition of hyphal formation by measuring down regulation of CYR1 gene expression at 8 ug/ml measured after 16 to 18 hrs by qRT-PCR analysis; type: functional, organism-based; conditions: dose 8.0 µg/ml, time 16-18 hrs
Candida albicans [21] = assay: Antifungal activity against FLC-resistant Candida albicans ATCC 14053 assessed as inhibition of hyphal formation by measuring down regulation of EFG1 gene expression at 8 ug/ml measured after 16 to 18 hrs by qRT-PCR analysis; type: functional, organism-based; conditions: dose 8.0 µg/ml, time 16-18 hrs
Candida albicans [22] = assay: Antifungal activity against FLC-resistant Candida albicans ATCC 14053 assessed as inhibition of hyphal formation by measuring down regulation of ECE1 gene expression at 8 ug/ml measured after 16 to 18 hrs by qRT-PCR analysis; type: functional, organism-based; conditions: dose 8.0 µg/ml, time 16-18 hrs
Candida albicans [23] = assay: Antifungal activity against FLC-resistant Candida albicans ATCC 14053 assessed as inhibition of hyphal formation by measuring down regulation of ALS3 gene expression at 8 ug/ml measured after 16 to 18 hrs by qRT-PCR analysis; type: functional, organism-based; conditions: dose 8.0 µg/ml, time 16-18 hrs
Candida albicans [24] = assay: Antifungal activity against FLC-resistant Candida albicans ATCC 14053 assessed as inhibition of hyphal formation by measuring down regulation of HWP1 gene expression at 8 ug/ml measured after 16 to 18 hrs by qRT-PCR analysis; type: functional, organism-based; conditions: dose 8.0 µg/ml, time 16-18 hrs
Candida albicans [25] = assay: Antifungal activity against FLC-resistant Candida albicans ATCC 14053 cultured in SD +10% FBS liquid medium assessed as inhibition of hyphal formation at 1 ug/ml measured after 2 hrs by inverted microscopy; type: functional, organism-based; conditions: dose 1.0 µg/ml
Candida albicans [26] = assay: Induction of reactive oxygen species production in FLC-resistant Candida albicans ATCC 14053 at 1 ug/mL measured after 16 to 18 hrs by DCFH-DA staining based fluorescence assay; type: functional, organism-based; conditions: dose 1.0 µg/ml, time 16-18 hrs
Candida albicans [27] = assay: Induction of mitochondrial membrane potential loss in FLC-resistant Candida albicans ATCC 14053 at 1 ug/mL measured after 16 to 18 hrs by JC-1 staining based fluorescence assay; type: functional, organism-based; conditions: dose 1.0 µg/ml, time 16-18 hrs
Candida albicans [28] = assay: Antifungal activity against FLC-resistant Candida albicans ATCC 14053 assessed as reduction in intracellular ATP level at 1 ug/ml measured after 16 to 18 hrs by luminescence assay; type: functional, organism-based; conditions: dose 1.0 µg/ml, time 16-18 hrs
[29] = Toxicity in Balb/c mouse assessed as death at 2 mg/kg, ig measured daily for 6 days; type: organism-based; conditions: in vivo, po, 144 h, time 6 day
Candida albicans [30] = assay: In vivo antifungal activity against FLC-resistant Candida albicans ATCC 14053 infected in Balb/c mouse assessed as survival rate at 2 mg/kg, ig measured daily for 6 days (Rvb < 20%); type: functional; conditions: ATCC 14053, po, 144 h, time 6 day
[31] = Toxicity in Balb/c mouse assessed as weight loss at 2 mg/kg, ig measured daily for 6 days; type: organism-based; conditions: in vivo, po, 144 h, time 6 day
Candida albicans [32] = assay: In vivo antifungal activity against FLC-resistant Candida albicans ATCC 14053 infected in Balb/c mouse assessed as reduction in kidney fungal load at 2 mg/kg, ig measured after 6 days; type: functional, organism-based; conditions: time 6.0 day
Candida albicans [33] = assay: In vivo antifungal activity against FLC-resistant Candida albicans ATCC 14053 infected in Balb/c mouse assessed as reduction in lung fungal load at 2 mg/kg, ig measured after 6 days; type: functional, organism-based; conditions: time 6.0 day
Candida albicans [34] = assay: In vivo antifungal activity against FLC-resistant Candida albicans ATCC 14053 infected in Balb/c mouse assessed as increase in organ coefficients of thymus at 2 mg/kg, ig measured after 6 days; type: functional, organism-based; conditions: time 6.0 day
Candida albicans [35] = assay: In vivo antifungal activity against FLC-resistant Candida albicans ATCC 14053 infected in Balb/c mouse assessed as increase in organ coefficients of spleen at 2 mg/kg, ig measured after 6 days; type: functional, organism-based; conditions: time 6.0 day
Candida albicans [36] = assay: In vivo antifungal activity against FLC-resistant Candida albicans ATCC 14053 infected in Balb/c mouse assessed as restoration of normal kidney morphology at 2 mg/kg, ig measured after 6 days by H and E staining based histopathological analysis; type: functional, organism-based; conditions: time 6.0 day
Candida albicans [37] = assay: In vivo antifungal activity against FLC-resistant Candida albicans ATCC 14053 infected in Balb/c mouse assessed as restoration of normal glomeruli morphology at 2 mg/kg, ig measured after 6 days by H and E staining based histopathological analysis; type: functional, organism-based; conditions: time 6.0 day
Candida albicans [38] = assay: In vivo antifungal activity against FLC-resistant Candida albicans ATCC 14053 infected in Balb/c mouse assessed as restoration of normal lung morphology at 2 mg/kg, ig measured after 6 days by H and E staining based histopathological analysis; type: functional, organism-based; conditions: time 6.0 day
Candida albicans [39] = assay: In vivo antifungal activity against FLC-resistant Candida albicans ATCC 14053 infected in Balb/c mouse assessed as reduction in severity of lesions in lungs at 2 mg/kg, ig measured after 6 days by H and E staining based histopathological analysis; type: functional, organism-based; conditions: time 6.0 day
Candida albicans [40] = assay: In vivo antifungal activity against FLC-resistant Candida albicans ATCC 14053 infected in Balb/c mouse assessed as reduction in severity of lesions in kidney at 2 mg/kg, ig measured after 6 days by H and E staining based histopathological analysis; type: functional, organism-based; conditions: time 6.0 day
Candida albicans [41] = assay: In vivo antifungal activity against FLC-resistant Candida albicans ATCC 14053 infected in Balb/c mouse assessed as reduction in renal injury at 2 mg/kg, ig measured after 6 days by H and E staining based histopathological analysis; type: functional, organism-based; conditions: time 6.0 day
Candida albicans [42] = assay: In vivo antifungal activity against FLC-resistant Candida albicans ATCC 14053 infected in Balb/c mouse assessed as reduction in infiltration of inflammatory cells at 2 mg/kg, ig measured after 6 days by H and E staining based histopathological analysis; type: functional, organism-based; conditions: time 6.0 day
Candida albicans [43] = assay: In vivo antifungal activity against FLC-resistant Candida albicans ATCC 14053 infected in Balb/c mouse assessed as removal of colonized fungi at 2 mg/kg, ig measured after 6 days by H and E staining based histopathological analysis; type: functional, organism-based; conditions: time 6.0 day

Compound: OC(Cn1cncn1)(Cn1cncn1)c1ccc(F)cc1F [FLUCONAZOLE]
- Activity [1]: Toxic
- MIC80 (Candida albicans [2]): 5.79 µg/mL (≈ 18.9 µM)
- MIC80 (Candida albicans [3]): > 40 µg/mL
- MIC80 (Candida albicans [4]): > 40 µg/mL
- MIC80 (Candida albicans [5]): > 40 µg/mL
- MIC80 (Candida albicans [6]): > 40 µg/mL
- MIC80 (Candida albicans [7]): > 40 µg/mL
- MIC80 (Candida albicans [8]): > 40 µg/mL
- MIC80 (Candida albicans [9]): > 40 µg/mL
- MIC80 (Candida albicans [10]): > 40 µg/mL
- MIC80 (Candida albicans [11]): > 40 µg/mL
- MIC80 (Candida albicans [12]): > 40 µg/mL
- MIC80 (Candida albicans [13]): > 40 µg/mL
- MIC80 (Candida albicans [14]): > 40 µg/mL
- MIC80 (Candida albicans [15]): > 40 µg/mL
- MIC80 (Candida albicans [16]): > 40 µg/mL
- Activity (Candida albicans [17]): Active
- inhibition (Candida albicans [18]): inactive
- inhibition (Candida albicans [19]): Active
- inhibition (Candida albicans [20]): Active
- inhibition (Candida albicans [21]): Active
- inhibition (Candida albicans [22]): Active
- inhibition (Candida albicans [23]): Active
- inhibition (Candida albicans [24]): Active
- inhibition (Candida albicans [25]): inactive
- Activity (Candida albicans [26]): Active
- Activity (Candida albicans [27]): Active
- Activity (Candida albicans [28]): Active
- Activity [29]: Non-Toxic
- survival at 2 mg/kg (Candida albicans [30]): 30%
- Activity [31]: Non-Toxic
- Activity (Candida albicans [32]): Active
- Activity (Candida albicans [33]): inactive
- Activity (Candida albicans [34]): Active
- Activity (Candida albicans [35]): Active
- Activity (Candida albicans [36]): inactive
- Activity (Candida albicans [37]): inactive
- Activity (Candida albicans [38]): inactive
- Activity (Candida albicans [39]): inactive
- Activity (Candida albicans [40]): inactive
- Activity (Candida albicans [41]): inactive
- Activity (Candida albicans [42]): inactive
- Activity (Candida albicans [43]): inactive
